Patent US9637490B2, “Antifungal 5,6-dihydro-4-[(difluoroethyl)phenyl]-4H-pyrrolo[1,2-α][1,4]benzodiazepine and 4-(difluoroethyl)phenyl-6H-pyrrolo[1,2-α][1,4]benzodiazepine derivatives” (Janssen Pharmaceutica NV, priority 2010, dated 2017)

Experiments:
[1] = test system: Sporothrix schenkii B62482; test: Antifungal activity in vitro (resazurin susceptibility screen), Inf. A; type: cell-based; conditions: Sporothrix, B62482, Sporothrix schenkii B62482; 27 °C, 4 days, resa time 24 hours
Protocol: (§1) The standard susceptibility screen was performed in 96-well plates (U-bottom, Greiner Bio-One). Serial dilutions (2-fold or 4-fold) of 20 mM compound stock solutions were made in 100% DMSO, followed by an intermediate dilution step in water. These serial dilutions (10 μl) were then spotted onto test-plates that could be stored in the dark at 4° C. for a maximum period of 2 weeks. An adequate broad dose-range was included with 64 μM as the highest in-test concentration. The culture medium RPMI-1640 was supplemented with L-glutamine, 2% glucose and buffered with 3-(N-morpholino)-propanesulfonic acid (MOPS) at pH 7.0±0.1. The different fungal species/isolates (Table 3a) were cryopreserved and 1/1000 diluted in medium just prior to use. A standard inoculum of 200 μl containing 10^3 colony-forming unit (cfu) was then added to each well. A positive control (100% growth=fungal culture without antifungal) and a negative control (0% growth=RPMI-MOPS medium) were included on each plate. Optimal incubation time and temperature were dependent on the fungal species and vary from 24 h for yeasts (37° C.) to one week or more for dermatophytes (27° C.). Inhibition of fungal growth was measured after adding 10 μl of 0.005% (w/v) resazurin (Sigma Aldrich) to each well, based on the principle that living cells convert the non-fluorescent blue resazurin into the pink and fluorescent resorufin, allowing fluorimetric reading (λhd ex 550 nm and μem 590 nm) after an additional incubation period (‘resa’ time mentioned in Table 3a). [table]

Microsporum canis B68128 = test: Antifungal activity in vitro (resazurin susceptibility screen), Inf. B; type: cell-based; conditions: Microsporum canis, B68128, Microsporum canis B68128; 27 °C, 9 days, resa time 24 hours
Protocol: as §1

[2] = test system: Trichophyton rubrum B68183; test: Antifungal activity in vitro (resazurin susceptibility screen), Inf. C; type: cell-based; conditions: Trichophyton rubrum, B68183, Trichophyton rubrum B68183; 27 °C, 7 days, resa time 24 hours
Protocol: as §1

[3] = test system: Candida parapsilosis B66126; test: Antifungal activity in vitro (resazurin susceptibility screen), Inf. D; type: cell-based; conditions: Lodderomyces parapsilosis, B66126, Candida parapsilosis B66126; 37 °C, 24 hours, resa time 4 hours
Protocol: as §1

[4] = test system: Aspergillus fumigatus B42928; test: Antifungal activity in vitro (resazurin susceptibility screen), Inf. E; type: cell-based; conditions: Aspergillus fumigatus, B42928, Aspergillus fumigatus B42928; 27 °C, 48 hours, resa time 17 hours
Protocol: as §1

[5] = test system: Cryptococcus neoformans B66663; test: Antifungal activity in vitro (resazurin susceptibility screen), Inf. F; type: cell-based; conditions: Cryptococcus neoformans, B66663, Cryptococcus neoformans B66663; 37 °C, 24 hours, resa time 4 hours
Protocol: as §1

[6] = test system: Trichophyton mentagrophytes B70554; test: Antifungal activity in vitro (resazurin susceptibility screen), Inf. G; type: cell-based; conditions: Trichophyton mentagrophytes, B70554, Trichophyton mentagrophytes B70554; 27 °C, 7 days, resa time 24 hours
Protocol: as §1

[7] = test system: Scedosporium apiospermum IHEM3817; test: Antifungal activity in vitro (resazurin susceptibility screen), Inf. H; type: cell-based; conditions: Scedosporium apiospermum, IHEM3817, Scedosporium apiospermum IHEM3817; 37 °C, 48 hours, resa time 17 hours
Protocol: as §1

[8] = test system: Scedosporium prolificans IHEM21157; test: Antifungal activity in vitro (resazurin susceptibility screen), Inf. I; type: cell-based; conditions: Lomentospora prolificans, 37 °C, 48 hours, resa time 17 hours
Protocol: as §1

Rhizopus oryzae IHEM5223 = test: Antifungal activity in vitro (resazurin susceptibility screen), Inf. J; type: cell-based; conditions: Rhizopus arrhizus, 37 °C, 24 hours, resa time 6 hours
Protocol: as §1

[9] = test system: Rhizomucor miehei IHEM13391; test: Antifungal activity in vitro (resazurin susceptibility screen), Inf. K; type: cell-based; conditions: Rhizomucor miehei, IHEM13391, Rhizomucor miehei IHEM13391; 37 °C, 48 hours, resa time 17 hours
Protocol: as §1

[10] = test system: Mucor circinelloides IHEM21105; test: Antifungal activity in vitro (resazurin susceptibility screen), Inf. L; type: cell-based; conditions: 27 °C, 48 hours, resa time 17 hours
Protocol: as §1

IC50 [1] [nM]	IC50 (Microsporum canis B68128) [nM]	IC50 [2] [nM]	IC50 [3] [nM]	IC50 [4] [nM]	IC50 [5] [nM]	IC50 [6] [nM]	IC50 [7] [nM]	IC50 [8] [nM]	IC50 (Rhizopus oryzae IHEM5223) [nM]	IC50 [9] [nM]	IC50 [10] [nM]	melting point	SMILES
2820	2040	214	13200	2040	1620	646	2340	513	9770	14500	> 64600	247.5 °C (dec.)	CC(F)(F)c1ccc(C2=NCc3cccc(Cl)c3-n3cccc32)cc1 [Compound 19, 10-chloro-4-[4-(1,1-difluoroethyl)phenyl]-6H-pyrrolo[1,2-a][1,4]benzodiazepine]
9550	417	129	3630	537	> 64600	794	182	100	> 64600	> 64600	> 64600	143.2 to 144.3 °C	CC(F)(F)c1cc(C2=NCc3c(F)cc(F)cc3-n3cccc32)ccc1F [Compound 23, 4-[3-(1,1-difluoroethyl)-4-fluorophenyl]-7,9-difluoro-6H-pyrrolo[1,2-a][1,4]-benzodiazepine]
14100	1580	1260	> 64600	1020	> 64600	2190	407	501	> 64600	> 64600	> 64600	124.2 to 125.4 °C	CC(F)(F)c1cc(C2=NCc3c(Cl)cc(Cl)cc3-n3cccc32)ccc1F [Compound 25, 7,9-dichloro-4-[3-(1,1-difluoroethyl)-4-fluorophenyl]-6H-pyrrolo[1,2-a][1,4]-benzodiazepine]
10200	468	468	3800	589	> 64600	1200	158	191	> 64600	13500	> 64600	84.9 to 85.9 °C	CC(F)(F)c1cc(C2=NCc3c(Cl)cc(F)cc3-n3cccc32)ccc1F [Compound 26, 7-chloro-4-[3-(1,1-difluoroethyl)-4-fluorophenyl]-9-fluoro-6H-pyrrolo[1,2-a][1,4]-benzodiazepine]
28200	14100	7410	45700	≥ 64600	16600	26900	708	2290	> 64600	41700	> 64600	139.3 to 141.2 °C	Cc1ccc(Cl)c2c1CN=C(c1ccc(C(C)(F)F)cc1)c1cccn1-2 [Compound 28, 10-chloro-4-[4-(1,1-difluoroethyl)phenyl]-7-methyl-6H-pyrrolo[1,2-a][1,4]-benzodiazepine]
> 64600	110	85.1	> 64600	501	> 64600	191	> 64600	> 64600	> 64600	> 64600	> 64600	186.3 to 186.6 °C	CC(F)(F)c1ccc(C2=NCc3c(Cl)cccc3-n3cccc32)cc1F [Compound 29, 7-chloro-4-[4-(1,1-difluoroethyl)-3-fluorophenyl]-6H-pyrrolo[1,2-a][1,4]benzodiazepine]
> 64600	468	162	7760	501	1410	363	8910	4570	> 64600	12300	> 64600	170.8 to 171.5 °C	CC(F)(F)c1ccc(C2=NCc3c(F)cccc3-n3cccc32)cc1F [Compound 30, 4-[4-(1,1-difluoroethyl)-3-fluorophenyl]-7-fluoro-6H-pyrrolo[1,2-a][1,4]benzodiazepine]
2340	437	468	3470	501	295	1260	10500	8710	> 64600	> 64600	> 64600	162.5 to 164.8 °C	CC(F)(F)c1ccc(C2=NCc3c(Cl)cc(F)cc3-n3cccc32)cc1F [Compound 31, 7-chloro-4-[4-(1,1-difluoroethyl)-3-fluorophenyl]-9-fluoro-6H-pyrrolo[1,2-a][1,4]-benzodiazepine]
6170	1660	1660	2750	2000	1290	1660	> 64600	> 64600	> 64600	> 64600	> 64600	145.3 to 147.4 °C	CC(F)(F)c1ccc(C2=NCc3c(F)cc(Cl)cc3-n3cccc32)cc1 [Compound 32, 9-chloro-4-[4-(1,1-difluoroethyl)phenyl]-7-fluoro-6H-pyrrolo[1,2-a][1,4]benzodiazepine]
9330	1950	724	13500	1910	2630	2140	646	10500	> 64600	> 64600	> 64600	158.2 to 161.3 °C	CC(F)(F)c1ccc(C2=NCc3c(F)cc(F)cc3-n3cccc32)cc1F [Compound 33, 4-[4-(1,1-difluoroethyl)-3-fluorophenyl]-7,9-difluoro-6H-pyrrolo[1,2-a][1,4]-benzodiazepine]
